The values below come from PMC8233378, “Acyclic nucleoside phosphonates with adenine nucleobase inhibit Trypanosoma brucei adenine phosphoribosyltransferase in vitro” (Scientific Reports, 2021).

The target of data set [1] is recombinant T. brucei APRT1 (Trypanosoma brucei brucei, UniProt Q57V32). Kind of data set: Inhibition of recombinant APRT1, continuous spectrophotometric assay (adenine to AMP, 256 nm). It is filed as biochemical. The following applies: recombinant APRT1 280 nM, 1 mM PRib-PP, 60 μM adenine, pH 8.4, 25 °C. From the text: To test if the newly synthesized ANPs with an adenine as a nucleobase can inhibit the activity of the APRT1 and APRT2, both enzymes were overexpressed in E. coli. […] First, we monitored the APRT1 enzyme activity by a continuous spectrophotometric assay measuring the conversion of adenine to AMP at 256 nm.
The T. brucei aprt1 and aprt2 genes were PCR amplified using oligonucleotides listed in Supplementary File S1, digested with BglII or BamHI and XhoI enzymes and ligated into the pSKB3 expression vector. The pSKB3 vector carries a 6 × His-tag and an AcTEV cleavage site upstream of BamHI restriction site. A BglII or BamHI restriction site was introduced at the 5′ end of the respective genes instead of the initiation methionine codon to maintain the 6 × His-tag and AcTEV recognition motif in frame with the genes. The verified plasmids were transformed into the BL21(DE3) E. coli cells. The 6xhis-tagged recombinant APRT1 protein was purified under native conditions using the ÄKTA prime plus instrument. Elution fractions were analyzed by SDS-PAGE, and those containing APRT1 were pooled and dialyzed against 50 mM Tris–HCl, pH 8.0, 150 mM NaCl, 5 mM MgCl2, 10% glycerol. Bradford protein assay (BioRad) was used to determine protein concentrations. The APRT1 recombinant protein was sent for antibody production to Davids Biotechnology (Regensburg, Germany). Recombinant APRT1 was subsequently used in all in vitro assays.
The methodology was adapted from Ref.[6]. Briefly, the enzyme kinetics of APRT1 were measured by a continuous spectrophotometric assay measuring the conversion of adenine to AMP, at 256 nm. The concentration of enzyme in the assay was 140 nM, the concentration of PRib-PP was kept at 1 mM and the adenine concentration varied from 3.75 to 60 μM. The reaction was carried out using a 1.0 cm path length with a UV Visible spectrometer 1601 (Shimadzu) in the reaction buffer (0.1 M Tris, pH 8.4; 0.11 M MgCl2; at 25 °C). The initial velocity (V0 [µM/min]) was calculated using Beer–Lambert law for different concentration of the purine substrate molecules: A = Δε × L × c where A is the measured absorbance, Δε is constant 2100 M^−1 cm^−1 for adenine, c is a concentration of the product formed in one minute (V0) and L is the length of a cuvette. The Km, Vmax and kcat values were calculated using GraphPad Prism 9 according to Michaelis–Menten kinetics. The Ki values of the inhibitors for APRT1 were determined in the same reaction buffer containing 1 mM PRib-PP, 60 μM adenine and 280 nM APRT1. The concentrations of inhibitors in the assay ranged from 1 nM to 100 μM, depending on the activity of the compound. The reaction was preceded by 1 min incubation of the respective enzyme with the given inhibitor. The Ki values were calculated using non-linear regression in GraphPad Prism 9.

Data set [2] is described as follows: Cytotoxicity of the prodrug in human cells (CellTiter-Glo 2.0), NHDF. The class given is cell-based. Conditions: human, normal human dermal fibroblasts (NHDF), NHDF. As for the experimental part: (§1) Compound cytotoxicity was evaluated in Hela S3 cancer cells and non-tumor human dermal fibroblasts (NHDF). All cell lines were obtained from ATCC (Manassas, VA, USA). The cytotoxicity was assayed using CellTiter-Glo® 2.0 detection reagent (Promega, Madison, USA) according to the manufacturer’s protocol.
A general note: In ATP-based viability assays light output follows the ATP content of the culture.

A further data set has as its system T. brucei BSF427. The data set can be described thus: Alamar Blue assay, BSF427 cells. It is filed as cell-based. The following applies: Trypanosoma brucei, read-out: T. brucei BSF EC50. The procedure: The bloodstream form (BSF) T. b. brucei Lister 427 and single marker (SM) strains were cultivated in HMI-11 medium and 10% FBS at 37 °C in a humidified atmosphere at 5% CO2[26]. HMI-11 medium containing dialyzed 10% FBS and only one defined source of the purine base, adenine, was used for selected experiments (50 μM, HMI-11^adenine). The SM cell line constitutively expressing ectopic T7 RNA polymerase and tetracycline repressor was used for the tetracycline-inducible expression of dsRNA and V5-tagged proteins. To generate SKD APRT1 and DKD APRT1/2 RNAi cell lines, the 524 bp and 537 bp fragments of the aprt-I (Tb927.7.1780) and aprt-II (Tb927.7.1790) open reading frames, respectively, were PCR amplified from T. brucei BSF427 genomic DNA with the oligonucleotides (Supplementary File S1). The APRT1 fragment was cloned into the p2T7-TABlue, while the APRT2 fragment was cloned into, into the p2T7-177 plasmid. The p2T7-TABlue plasmid containing the APRT1 fragment was electroporated to SM cells which were subjected to selection with hygromycin (5 µg/ml). Verified SKD APRT1 cell line was then transfected with Not-1 linearized p2T7-177 plasmid containing the APRT2 fragment and the resulting DKD APRT1/2 cell line was selected with phleomycin (2.5 µg/ml). For the inducible expression of V5-tagged APRT1 andAPRT2, the coding sequences of the respective genes were PCR amplified using oligonucleotides listed in Supporting Information S1. The obtained PCR fragments were cloned into the pT7_N-term-V5 vector[6] using BglII or BamHI and XbaI restriction enzymes. Plasmids were then transfected to SM BSF cells. The resulting transfectants were established in medium containing puromycin (0.1 µg/ml). The induction of the dsRNA or tagged proteins was triggered by the addition of 1 µg/ml of tetracycline into the medium.
An Alamar Blue Assay was performed in a 96-well plate format to screen for sensitivity of T. brucei BSF cells to ANPs as previously published. The EC50 values were calculated using non-linear regression in GraphPad Prism 9.

The nature of data set [3]: Cytotoxicity of the prodrug in human cells (CellTiter-Glo 2.0), HeLa S3. The following applies: human, HeLa S3 cells; HeLa S3, 10 µM; read-out: Cytotoxicity of prodrug: HeLaS3 viability. It is filed as cell-based. As for the experimental part:
as §1

A further data set has as its system T. brucei BSF cells. The data set can be described thus: Cell cycle analysis of treated trypanosomes (microscopy, flow cytometry with propidium iodide). It is filed as cell-based, Trypanosoma brucei. From the text:
The inhibition of the growth of T. brucei BSF in HMI-11 medium in single micromolar EC50 values (Table 1) was somewhat surprising considering the dispensability of APRT enzymes for these cells. […] To get deeper insights into the in vivo action of ANPs on APRT enzyme we tested their cytotoxicity on wild type cells grown in HMI-11^adenine medium. In this medium, the cells rely on the activity of the APRT enzyme to produce AMP and other […]. […] To corroborate this observation, we also tested cells with induced ectopic expression of V5-tagged APRT1 in both types of media and in the presence of the selected ANPs. […] The changes in the distribution of different cell cycle stages within a population were further assessed by flow cytometry assaying the DNA content by staining the cells with propidium iodide (Fig. 8A).
BFS trypanosomes in log phase were resuspended in HMI-11 medium to a density of 2 × 10^5 cells ml^−1. Test compounds at concentrations ranging from 1 to 16 µM were added to the cell suspension followed by 12 h incubation at 37 °C. The cell cycle analysis was performed as described previously. Briefly, approximately 2 × 10^6 cells were washed with PBS and fixed in 1 ml of 70% methanol in 1 × PBS and stored at 4 °C overnight. Following a PBS wash, samples were incubated with 10 µg/ml propidium iodide and 9.6 µg/ml of RNaseA at 37 °C for 45 min. Samples were analyzed on a FACS Canto II (BD) collecting 10,000 gated events.
A general note: A flow cytometer gives signals particle by particle.

Where a name gives a salt, the structure may show the parent alone. Read-outs that look alike come from different tables or passages of the source.

Chain of recombinant T. brucei APRT1 (Q57V32 entry or part of it): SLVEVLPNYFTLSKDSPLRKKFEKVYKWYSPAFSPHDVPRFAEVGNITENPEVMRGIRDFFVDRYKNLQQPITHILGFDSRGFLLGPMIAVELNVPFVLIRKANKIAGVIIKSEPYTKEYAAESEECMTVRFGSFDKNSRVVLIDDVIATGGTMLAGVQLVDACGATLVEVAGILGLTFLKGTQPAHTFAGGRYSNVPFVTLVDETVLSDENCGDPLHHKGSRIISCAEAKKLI

Regarding `Nc1ncnc2c1ncn2CC(COCCP(=O)(O)O)OCCP(=O)(O)O` (centres unmarked) [compound 20, 4-(Adenin-9-ylmethyl)-3,6-dioxaoctane-1,8-diphosphonic acid], the Ki in data set [1] (read-out: APRT1 Ki) came out at 27.7 ± 4.5 µM.

Regarding `Nc1ncnc2c1ncn2CCOC(CO)CP(=O)(O)O` (centres unmarked) [compound 21, 9-[2-(3-Hydroxy-1-phosphonopropan-2-yloxy)ethyl]adenine], the Ki in data set [1] (read-out: APRT1 Ki) is over 30 µM.

As for `Nc1ncnc2c1ncn2CCCSCP(=O)(O)O` [3a, 5-(Adenin-9-yl)-2-thiapentanephosphonic acid, disodium salt], the Ki in data set [1] (read-out: APRT1 Ki) was determined as 10.1 ± 1.1 µM.

On to `CCOC(=O)[C@H](Cc1ccccc1)NP(=O)(COCC(COCP(=O)(N[C@@H](Cc1ccccc1)C(=O)OCC)N[C@@H](Cc1ccccc1)C(=O)OCC)Cn1cnc2c(N)ncnc21)N[C@@H](Cc1ccccc1)C(=O)OCC` [compound 25, Tetra-(L-phenylalanineethyl ester) prodrug of {[(2-[(adenin-9-yl)methyl]propane-1,3-diyl)bis(oxy)]bis(methylene)}diphosphonic acid], for which the viability at 10 µM came out at 90% in data set [2] and 99% in data set [3]. Further, in the data set with T. brucei BSF427 (BSF427, HMI-11 medium), the EC50 is 3.7 µM.

Take `CCOC(=O)[C@H](Cc1ccccc1)NP(=O)(CCOCC(Cn1cnc2c(N)ncnc21)OCCP(=O)(N[C@@H](Cc1ccccc1)C(=O)OCC)N[C@@H](Cc1ccccc1)C(=O)OCC)N[C@@H](Cc1ccccc1)C(=O)OCC` (stereo partly drawn) [compound 26, Tetra-(L-phenylalanineethyl ester) prodrug of (2-[3-(adenin-9-yl)-2-(2-bis(hydroxyphosphoryl)ethoxy)propoxy]ethyl}phosphonic acid]: the results for the viability at 10 µM in data set [2] and in data set [3] were 88% and 100%, respectively. Moreover, the 50% effective concentration (EC50) in the data set on T. brucei BSF427 (BSF427, HMI-11 medium) came out at 1.55 µM.

As for `CC(C)OC(=O)[C@H](Cc1ccccc1)NP(=O)(CCSCCn1cnc2c(N)ncnc21)N[C@@H](Cc1ccccc1)C(=O)OC(C)C` [24b, 9-(5-(Bis((S-1-isopropoxycarbonyl-2-phenylethyl)amino)phosphoryl)-3-thiapentyl)adenine], the “direct microscopic observation of exposed T. brucei cells” value in the data set with T. brucei BSF cells is listed as “problems in the cell cycle”. Besides, the “distribution of cell cycle stages by flow cytometry (DNA content)” value in the data set with T. brucei BSF cells (1 to 16 µM, 12 h, propidium iodide) is “increase in the number of cells in G1-phase”. Also, the viability at 10 µM in data set [2] was determined as 89%; in data set [3] it was 98%. Moreover, the EC50 in the data set with T. brucei BSF427 (BSF427, HMI-11^adenine medium (50 μM adenine as sole purine)) worked out at 6.16 µM; in the data set with T. brucei BSF427 (BSF427, HMI-11 medium) it was 6.36 µM. For the compound `Nc1ncnc2c1ncn2CCSCCP(=O)(O)O` [3b, 5-(Adenin-9-yl)-3-thiapentanephosphonic acid, disodium salt], the Ki in data set [1] (read-out: APRT1 Ki) is over 30 µM. With `Nc1ncnc2c1ncn2CCN(CCOCP(=O)(O)O)CCP(=O)(O)O` [9d, 9-[(N-Phosphonoethyl-N-phosphonomethoxyethyl)-2-aminoethyl]adenine], the Ki in data set [1] (read-out: APRT1 Ki) stood at 3.88 ± 0.29 µM. As to `Nc1ncnc2c1ncn2CCN(CCN(CCP(=O)(O)O)CCP(=O)(O)O)CCP(=O)(O)O` [compound 17, (2-((2-((2-(Adenine-9-yl)ethyl)(2-phosphonoethyl)amino)ethyl)(2-phosphonoethyl)amino)ethyl)phosphonic acid], the Ki in data set [1] (read-out: APRT1 Ki) came out at 21.3 ± 2.1 µM. For the compound `Nc1ncnc2c1ncn2CC(COCP(=O)(O)O)COCP(=O)(O)O` [compound 22, {[(2-[(Adenin-9-yl)methyl]propane-1,3-diyl)bis(oxy)]bis(methylene)}diphosphonic acid], the Ki in data set [1] (read-out: APRT1 Ki) amounted to 5.15 ± 0.69 µM. For the compound `Nc1ncnc2c1ncn2CCN(CCCC(=O)O)CCP(=O)(O)O` [9f, 9-[(N-(Carboxypropyl)-N-(2-phosphonoethyl))-2-aminoethyl]adenine], the Ki in data set [1] (read-out: APRT1 Ki) was over 30 µM. In the case of `Nc1ncnc2c1ncn2CCN(CCP(=O)(O)O)CCP(=O)(O)O` [9c, 9-[(N,N-(Bis-2-phosphonoethyl))-2-aminoethyl]adenine], the Ki in data set [1] (read-out: APRT1 Ki) was over 30 µM. On to `N#CCCN(CCn1cnc2c(N)ncnc21)CCP(=O)(O)O` [9b, 9-[(N-(2-Cyanoethyl)-N-(2-phosphonoethyl))-2-aminoethyl]adenine], for which, in data set [1] (read-out: APRT1 Ki), the Ki was over 30 µM. Regarding `Nc1ncnc2c1ncn2CC[S+]([O-])CCP(=O)(O)O` (centres unmarked) [4b, Sodium 5-(adenin-9-yl)-3-oxo-3-thiapentanephosphonate], the Ki in data set [1] (APRT1 Ki) was over 30 µM. For `Nc1ncnc2c1ncn2CCN(CCNCCO)CCP(=O)(O)O` [9a, 9-[(N-(2-((2-Hydroxyethyl)amino)ethyl)-N-(2-phosphonoethyl))-2-aminoethyl]adenine triethylammonium salt], the Ki in data set [1] (read-out: APRT1 Ki) turned out to be 4.92 ± 0.43 µM. Turning to `Nc1ncnc2c1ncn2CCN(CCOCCP(=O)(O)O)CCP(=O)(O)O` [9g, 9-[(N-Phosphonoethyl-N-phosphonoethoxyethyl)-2-aminoethyl]adenine], the Ki in data set [1] (read-out: APRT1 Ki) is 3.07 ± 0.25 µM.

As for `Nc1ncnc2c1ncn2CCC[S+]([O-])CP(=O)(O)O` (centres unmarked) [4a, 5-(Adenin-9-yl)-2-oxo-2-thiapentanephosphonic acid, disodium salt], the Ki in data set [1] (read-out: APRT1 Ki) was over 30 µM.

As usually defined, the Ki is a measure of affinity in units of concentration, obtained from inhibition or displacement. For orientation: viability means the share of living cells, or the viability signal relative to a control. The EC50 is the concentration needed to bring the measured effect to its halfway point.
